Reference: ChEMBL document CHEMBL1147793, “Synthesis and biological investigations of dopaminergic partial agonists preferentially recognizing the D4 receptor subtype” (Bioorg Med Chem Lett, 2006)

Legend:
[1] = target: D(1A) dopamine receptor (Sus scrofa, UniProt P50130); experiment: Displacement of [3H]SCH-23390 from dopamine D1 receptor in porcine striatal membrane; format: cell membranes, Striatum
[2] = target: T1, D(2) dopamine receptor (Homo sapiens, UniProt P14416); experiment: Displacement of [3H]spiperone from human cloned dopamine D2(long) receptor expressed in CHO cells; format: cell-based
T1 sequence (P14416 whole entry): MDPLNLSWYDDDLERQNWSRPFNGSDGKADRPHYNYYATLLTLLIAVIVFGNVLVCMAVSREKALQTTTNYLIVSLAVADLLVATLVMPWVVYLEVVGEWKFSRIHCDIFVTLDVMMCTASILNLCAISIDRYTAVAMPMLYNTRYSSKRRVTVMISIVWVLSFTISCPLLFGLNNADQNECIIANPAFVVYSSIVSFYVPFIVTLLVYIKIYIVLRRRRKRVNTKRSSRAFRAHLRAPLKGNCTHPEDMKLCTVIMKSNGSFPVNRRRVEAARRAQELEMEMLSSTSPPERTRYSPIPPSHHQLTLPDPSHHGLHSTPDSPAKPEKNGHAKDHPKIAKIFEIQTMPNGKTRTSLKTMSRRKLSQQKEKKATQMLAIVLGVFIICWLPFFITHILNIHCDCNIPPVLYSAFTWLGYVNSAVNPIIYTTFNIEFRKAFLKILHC

[3] = target: T1, D(2) dopamine receptor; experiment: Displacement of [3H]spiperone from human cloned dopamine D2(short) receptor expressed in CHO cells; format: cell-based
[4] = target: T2, D(4) dopamine receptor (Homo sapiens, UniProt P21917); experiment: Displacement of [3H]spiperone from human cloned dopamine D4 receptor expressed in CHO cells; format: cell-based
T2 sequence (P21917 whole entry): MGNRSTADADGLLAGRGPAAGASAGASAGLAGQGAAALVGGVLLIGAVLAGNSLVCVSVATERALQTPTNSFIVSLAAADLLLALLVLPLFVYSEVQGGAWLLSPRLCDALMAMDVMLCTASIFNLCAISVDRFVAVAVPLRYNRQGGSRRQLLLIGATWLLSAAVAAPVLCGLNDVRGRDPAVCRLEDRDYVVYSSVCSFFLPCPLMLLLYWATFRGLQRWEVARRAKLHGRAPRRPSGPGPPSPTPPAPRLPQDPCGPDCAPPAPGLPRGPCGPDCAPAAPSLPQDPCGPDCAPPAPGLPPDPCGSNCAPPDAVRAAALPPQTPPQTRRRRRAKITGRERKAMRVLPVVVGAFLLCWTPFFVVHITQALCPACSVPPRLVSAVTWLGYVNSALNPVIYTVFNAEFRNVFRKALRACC

[5] = target: T3, D(3) dopamine receptor (Homo sapiens, UniProt P35462); experiment: Displacement of [3H]spiperone from human cloned dopamine D3 receptor expressed in CHO cells; format: cell-based
T3 sequence (P35462 whole entry): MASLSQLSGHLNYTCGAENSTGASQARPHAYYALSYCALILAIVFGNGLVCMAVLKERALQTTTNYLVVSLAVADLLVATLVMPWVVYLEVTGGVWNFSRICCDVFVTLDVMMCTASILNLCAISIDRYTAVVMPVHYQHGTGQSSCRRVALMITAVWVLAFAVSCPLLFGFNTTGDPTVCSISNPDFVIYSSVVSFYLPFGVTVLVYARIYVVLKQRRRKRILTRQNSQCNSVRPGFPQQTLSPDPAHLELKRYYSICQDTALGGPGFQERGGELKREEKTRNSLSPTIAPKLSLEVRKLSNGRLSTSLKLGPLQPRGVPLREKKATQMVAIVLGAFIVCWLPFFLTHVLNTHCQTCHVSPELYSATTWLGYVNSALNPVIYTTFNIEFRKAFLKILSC

[6] = target: T1, D(2) dopamine receptor; experiment: Intrinsic activity against dopamine D2(long) receptor assessed as [3H]thymidine uptake in CHO cells relative to quinpirole by mitogenesis assay; format: functional, cell-based
[7] = target: T3, D(3) dopamine receptor; experiment: Intrinsic activity against dopamine D3 receptor assessed as [3H]thymidine uptake in CHO cells by mitogenesis assay
[8] = target: T2, D(4) dopamine receptor; experiment: Intrinsic activity against dopamine D4 receptor assessed as [3H]thymidine uptake in CHO cells by mitogenesis assay; format: functional, cell-based
[9] = target: 5-hydroxytryptamine receptor 2A (Sus scrofa, UniProt P50129); experiment: Displacement of […] from 5HT2 receptor in porcine striatal membrane; format: cell membranes, Striatum
Sequence of 5-hydroxytryptamine receptor 2A (P50129 whole entry): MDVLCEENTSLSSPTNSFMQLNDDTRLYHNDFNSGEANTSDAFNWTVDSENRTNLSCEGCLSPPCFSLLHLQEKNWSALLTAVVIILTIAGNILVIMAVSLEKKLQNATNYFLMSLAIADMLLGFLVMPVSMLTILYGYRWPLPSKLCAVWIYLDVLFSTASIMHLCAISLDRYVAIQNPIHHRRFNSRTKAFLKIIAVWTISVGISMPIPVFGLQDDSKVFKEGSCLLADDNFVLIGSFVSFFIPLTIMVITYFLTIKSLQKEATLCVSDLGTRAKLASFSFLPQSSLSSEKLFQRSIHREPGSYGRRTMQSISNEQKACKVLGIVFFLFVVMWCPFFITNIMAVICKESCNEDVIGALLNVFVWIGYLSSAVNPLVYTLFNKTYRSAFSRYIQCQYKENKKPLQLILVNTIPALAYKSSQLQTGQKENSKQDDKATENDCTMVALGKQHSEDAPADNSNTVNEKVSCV

[10] = target: T1, D(2) dopamine receptor; experiment: Intrinsic activity against dopamine D2(short) receptor assessed as [3H]thymidine uptake in CHO cells by mitogenesis assay; format: functional, cell-based
[11] = target: T1, D(2) dopamine receptor; experiment: Intrinsic activity against dopamine D2(long) receptor assessed as [3H]thymidine uptake in CHO cells by mitogenesis assay; format: functional, cell-based
[12] = target: T1, D(2) dopamine receptor; experiment: Intrinsic activity against dopamine D2(short) receptor assessed as [3H]thymidine uptake in CHO cells relative to quinpirole by mitogenesis assay; format: functional, cell-based
[13] = target: T1, D(2) dopamine receptor; experiment: Intrinsic activity against dopamine D2(long) receptor expressed in CHO cells by GTPgammaS assay; format: functional, cell-based
[14] = target: T1, D(2) dopamine receptor; experiment: Intrinsic activity against dopamine D2(long) receptor expressed in CHO cells relative to quinpirole by GTPgammaS assay; format: functional, cell-based
[15] = target: T1, D(2) dopamine receptor; experiment: Intrinsic activity against dopamine D2(short) receptor expressed in CHO cells by GTPgammaS assay; format: functional, cell-based
[16] = target: T1, D(2) dopamine receptor; experiment: Intrinsic activity against dopamine D2(short) receptor expressed in CHO cells relative to quinpirole by GTPgammaS assay; format: functional, cell-based
[17] = target: T2, D(4) dopamine receptor; experiment: Intrinsic activity against dopamine D4 receptor expressed in CHO cells by GTPgammaS assay; format: functional, cell-based

Sequence of D(1A) dopamine receptor (P50130 whole entry): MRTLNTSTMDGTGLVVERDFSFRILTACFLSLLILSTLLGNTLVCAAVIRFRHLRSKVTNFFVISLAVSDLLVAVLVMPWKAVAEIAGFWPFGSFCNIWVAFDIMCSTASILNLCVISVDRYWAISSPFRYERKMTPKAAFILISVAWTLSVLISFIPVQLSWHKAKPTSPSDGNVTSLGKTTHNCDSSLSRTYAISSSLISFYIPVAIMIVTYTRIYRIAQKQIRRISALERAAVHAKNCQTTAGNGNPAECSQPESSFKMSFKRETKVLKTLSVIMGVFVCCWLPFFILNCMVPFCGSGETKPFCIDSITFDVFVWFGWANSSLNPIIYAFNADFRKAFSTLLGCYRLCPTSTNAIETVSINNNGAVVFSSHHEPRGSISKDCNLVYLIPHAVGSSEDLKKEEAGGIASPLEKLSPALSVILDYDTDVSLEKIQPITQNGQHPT

Row | Compound | Ki [1] | Ki [2] | Ki ([3]; read-out: Ki) | Ki [4] | Ki [5] | also measured
1 | c1ccc(N2CCN(Cc3cnn(-c4ccccc4)c3)CC2)cc1 | 1600 nM | 140 nM | 75 nM | 1 nM | 140 nM | –
2 | c1ccc(N2CCN(Cc3cnn(-c4ccccn4)c3)CC2)cc1 | 1600 nM | 340 nM | 190 nM | 2.6 nM | 160 nM | –
3 | COc1ccccc1N1CCN(Cc2cn(-c3ccccc3)nn2)CC1 | 27000 nM | 120 nM | 65 nM | 2.7 nM | 340 nM | –
4 | c1ccc(N2CCN(Cc3ccc(-n4cccn4)cc3)CC2)cc1 | 7600 nM | 3000 nM | 2400 nM | 20 nM | 2100 nM | –
5 | COc1ccccc1N1CCN(Cc2cnn(-c3ccccn3)c2)CC1 | 1900 nM | 40 nM | 31 nM | 0.44 nM | 72 nM | –
6 | c1ccc(-n2cc(CN3CCN(c4ncccn4)CC3)cn2)cc1 | 7100 nM | 6000 nM | 14000 nM | 310 nM | 2900 nM | –
7 | COc1ccccc1N1CCN(Cc2cnn(-c3ccccc3)c2)CC1 | 1000 nM | 11 nM | 8 nM | 0.28 nM | 35 nM | Efficacy [6]: 56%; EC50 [7]: 0.21 nM; EC50 [8]: 0.6 nM; Ki [9]: 1300 nM; EC50 [10]: 0.22 nM; EC50 [11]: 0.28 nM; Efficacy [12]: 66%
8 | Clc1ccc(N2CCN(Cc3cnn(-c4ccccc4)c3)CC2)cc1 | 7500 nM | 2900 nM | – | 2.9 nM | 1900 nM | Ki [3]: 1900 nM
9 | c1ccc(N2CCN(Cc3cn(-c4ccccc4)nn3)CC2)cc1 | 21000 nM | 1500 nM | 860 nM | 9.9 nM | 1200 nM | –
10 | C1=C(c2ccccc2)CCN(Cc2cn(-c3ccccc3)nn2)C1 | 10000 nM | 220 nM | 110 nM | 3.2 nM | 94 nM | –
11 | Fc1ccccc1N1CCN(Cc2cnn(-c3ccccc3)c2)CC1 | 680 nM | 63 nM | 37 nM | 0.7 nM | 67 nM | –
12 | Cc1nn(-c2ccccc2)cc1CN1CCN(c2ccccc2)CC1 | 3900 nM | 71 nM | 43 nM | 1 nM | 360 nM | –
13 | C1=C(c2ccccc2)CCN(Cc2cnn(-c3ccccc3)c2)C1 | 3000 nM | 38 nM | 28 nM | 0.59 nM | 33 nM | EC50 [13]: 25 nM; Efficacy [6]: 54%; Efficacy [14]: 45%; EC50 [7]: 3.3 nM; EC50 [8]: 5.6 nM; Ki [9]: 2100 nM; EC50 [15]: 32 nM; Efficacy [16]: 17%; EC50 [17]: 9.5 nM; EC50 [10]: 1.7 nM; EC50 [11]: 3 nM; Efficacy [12]: 30%
14 | Cc1c(CN2CCN(c3ccccc3)CC2)cnn1-c1ccccc1 | 560 nM | 630 nM | 250 nM | 5.3 nM | 320 nM | –
15 | Fc1ccc(N2CCN(Cc3cnn(-c4ccccc4)c3)CC2)cc1 | 1900 nM | 450 nM | 400 nM | 2.9 nM | 540 nM | –
16 | c1ccc(-c2c[nH]c(CN3CCN(c4ccccc4)CC3)c2)cc1 | 2100 nM | – | – | – | 514 nM | –
